Data published in patent publication US11905281B2 (Amgen Inc., priority 2017, dated 2024).
Read-outs that look alike come from different tables or passages of the source.

What was measured:
[1] = target: GDP-bound KRAS protein (aa 1-169), containing both G12C and C118A amino acid substitutions (Homo sapiens, UniProt P01116, C118A/G12C); experiment: Coupled Nucleotide Exchange Assay (Table 16 conditions: 5 min pre-incubation); type: biochemical; settings: 5 min compound pre-incubation; SOS-mediated nucleotide exchange, AlphaScreen
Method: (§1) For compounds in Table 16, the following assay conditions were employed:
The assay plates were then read on a PerkinElmer EnVision Multilabel Reader, using AlphaScreen® technology, and data were analyzed using a 4-parameter logistic model to calculate IC50 values.

[2] = tested on: Phosphorylation of ERK1/2 in MIA PaCa-2 cells; experiment: Phospho-ERK1/2 MSD Assay, MIA PaCa-2 (Table 16 conditions: 2 hours compound treatment); type: cell-based; settings: 10 ng/mL EGF for 10 min, read-out: p-ERK IC50 (MIA PaCa-2)
Method: as §1
Sixteen hours prior to compound treatment, MIA PaCa-2 or A549 cells were seeded in 96-well cell culture plates at a density of 25,000 cells/well and incubated at 37° C., 5% CO2. A compound dose-response titration was diluted in growth media, added to appropriate wells of a cell culture plate, and then incubated at 37° C., 5% CO2 for 2 hours. […] Phosphorylation of ERK1/2 in compound-treated lysates was assayed using Phospho-ERK1/2 Whole Cell Lysate kits (Meso Scale Discovery K151DWD) according to the manufacturer's protocol. Assay plates were read on a Meso Scale Discovery Sector Imager 6000, and data were analyzed using a 4-parameter logistic model to calculate IC50 values.

[3] = Homo sapiens, MIA PaCa-2, MIA PaCa-2 cells

GDP-bound KRAS protein (aa 1-169), containing both G12C and C118A amino acid substitutions, sequence (P01116 1-169 isoform P01116-2 G12C/C118A): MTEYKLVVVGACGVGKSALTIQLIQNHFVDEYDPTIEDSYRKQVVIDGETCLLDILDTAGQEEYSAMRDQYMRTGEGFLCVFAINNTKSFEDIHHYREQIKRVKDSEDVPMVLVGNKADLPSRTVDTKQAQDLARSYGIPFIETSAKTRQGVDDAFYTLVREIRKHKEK

SMILES	IC50 [1] [nM]	IC50 ([2]; MIA PaCa-2 cells) [nM]	IC50 [2, 3] [nM]
C=CC(=O)N1CCN(c2nc(=O)n(-c3c(C)ccnc3C3CC3)c3nc(-c4c(O)cccc4F)c(F)cc23)[C@@H](C)C1 [Example 42-1, 1-(2-cyclopropyl-4-methyl-3-pyridinyl)-6-fluoro-7-(2-fluoro-6-hydroxyphenyl)-4-((2S)-2-methyl-4-(2-propenoyl)-1-piperazinyl)pyrido-[2,3-d]pyrimidin-2(1H)-one]	150	103	
C=CC(=O)N1CCN(c2nc(=O)n(-c3ccccc3C(C)C)c3nc(-c4ccccc4F)c(Cl)nc23)[C@@H](C)C1 (single isomer, unassigned) [Example 50-2]	3690		
C=CC(=O)N1CCN(c2nc(=O)n(-c3c(C)ccnc3C3CC3)c3nc(-c4c(O)cccc4F)c(F)cc23)[C@@H](C)C1 [Example 42-2, 1-(2-cyclopropyl-4-methyl-3-pyridinyl)-6-fluoro-7-(2-fluoro-6-hydroxyphenyl)-4-((2S)-2-methyl-4-(2-propenoyl)-1-piperazinyl)pyrido-[2,3-d]pyrimidin-2(1H)-one]	1560		
C=CC(=O)N1CCN(c2nc(=O)n(-c3ccccc3C(C)(C)C)c3nc(-c4c(O)cccc4F)c(Cl)cc23)[C@@H](C)C1 (single isomer, unassigned) [Example 49-1]	2580		
C=CC(=O)N1CCN(c2nc(=O)n(-c3ccccc3C(C)C)c3nc(-c4c(O)cccc4F)c(C)cc23)[C@@H](C)C1 (single isomer, unassigned) [Example 52-2]	146		
C=CC(=O)N1CCN(c2nc(=O)n(-c3c(C)ccnc3C3CC3)c3nc(-c4ccccc4F)c(Cl)cc23)[C@@H](C)C1 (single isomer, unassigned) [Example 45-1]	89	49	
C=CC(=O)N1CCN(c2nc(=O)n(-c3ccccc3C(C)C)c3nc(-c4ccccc4F)c(C)nc23)[C@@H](C)C1 (single isomer, unassigned) [Example 51-2]	221		
C=CC(=O)N1CCN(c2nc(=O)n(-c3c(C)cnn3C(C)C)c3nc(-c4ccccc4F)c(Cl)cc23)[C@@H](C)C1 (single isomer, unassigned) [Example 53-1]	98	93	
C=CC(=O)N1CCN(c2nc(=O)n(-c3c(CC)ncnc3CC)c3nc(-c4ccccc4F)c(Cl)cc23)[C@@H](C)C1 [Example 47, 6-Chloro-1-(4,6-diethyl-5-pyrimidinyl)-7-(2-fluorophenyl)-4-((2S)-2-methyl-4-(2-propenoyl)-1-piperazinyl)pyrido[2,3-d]pyrimidin-2(1H)-one]	409		152
C=CC(=O)N1CCN(c2nc(=O)n(-c3c(C)ccnc3C(C)C)c3nc(-c4c(O)cccc4F)c(F)cc23)[C@@H](C)C1 [Example 41-2, 6-fluoro-7-(2-fluoro-6-hydroxyphenyl)-1-(4-methyl-2-(2-propanyl)-3-pyridinyl)-4-((2S)-2-methyl-4-(2-propenoyl)-1-piperazinyl)pyrido-[2,3-d]pyrimidin-2(1H)-one]		1660	
C=CC(=O)N1CCN(c2nc(=O)n(-c3c(C)cccc3C(C)C)c3nc(-c4c(O)cccc4F)c(Cl)cc23)[C@@H](C)C1 [Example 39-1, 6-chloro-7-(2-fluoro-6-hydroxyphenyl)-1-(2-methyl-6-(2-propanyl)phenyl)-4-((2S)-2-methyl-4-(2-propenoyl)-1-piperazinyl)pyrido-[2,3-d]pyrimidin-2(1H)-one]	25	28	
C=CC(=O)N1CCN(c2nc(=O)n(-c3c(C)ccnc3C3CC3)c3nc(-c4c(O)cccc4F)c(Cl)cc23)[C@@H](C)C1 [Example 44]	103	65	
C=CC(=O)N1CCN(c2nc(=O)n(-c3c(C)ccnc3C3CC3)c3nc(-c4c(O)cccc4F)c(Cl)cc23)[C@@H](C)C1 [Example 44-2]	208	138	
C=CC(=O)N1CCN(c2nc(=O)n(-c3c(C)ccnc3C3CC3)c3nc(-c4ccccc4F)c(Cl)cc23)[C@@H](C)C1 [Example 45, 6-Chloro-1-(2-cyclopropyl-4-methyl-3-pyridinyl)-7-(2-fluorophenyl)-4-((2A)-2-methyl-4-(2-propenoyl)-1-piperazinyl)pyrido[2,3-d]pyrimidin-2(1H)-one]	319	62	
C=CC(=O)N1CCN(c2nc(=O)n(-c3ccccc3C(C)C)c3nc(-c4ccccc4F)c(C)nc23)[C@@H](C)C1 [Example 51, 7-(2-Fluorophenyl)-6-methyl-4-((2A)-2-methyl-4-(2-propenoyl)-1-piperazinyl)-1-(2-(2-propanyl)phenyl)-2(1H)-pteridinone]	538	440	
C=CC(=O)N1CCN(c2nc(=O)n(-c3c(C)ccnc3C(C)C)c3nc(-c4c(O)cccc4F)c(F)cc23)[C@@H](C)C1 [Example 41, 6-Fluoro-7-(2-fluoro-6-hydroxyphenyl)-1-(4-methyl-2-(2-propanyl)-3-pyridinyl)-4-((2S)-2-methyl-4-(2-propenoyl)-1-piperazinyl)pyrido[2,3-d]pyrimidin-2(1H)-one]		85	
C=CC(=O)N1CCN(c2nc(=O)n(-c3c(C(C)C)ncnc3C(C)C)c3nc(-c4ccccc4F)c(Cl)cc23)[C@@H](C)C1 [Example 43, 6-Chloro-1-(4,6-di(2-propanyl)-5-pyrimidinyl)-7-(2-fluorophenyl)-4-((2S)-2-methyl-4-(2-propenoyl)-1-piperazinyl)pyrido[2,3-d]pyrimidin-2(1H)-one]	38		34
C=CC(=O)N1CCN(c2nc(=O)n(-c3ccccc3C(C)C)c3nc(-c4c(O)cccc4F)c(C)cc23)[C@@H](C)C1 [Example 52, 7-(2-fluoro-6-hydroxyphenyl)-6-methyl-4-((2S)-2-methyl-4-(2-propenoyl)-1-piperazinyl)-1-(2-(2-propanyl)phenyl)pyrido[2,3-d]pyrimidin-2(1H)-one]	338		

The remaining lines, values ahead:

IC50 [1] [nM]	IC50 ([2]; MIA PaCa-2 cells) [nM]	IC50 [2, 3] [nM]	SMILES
493	169		C=CC(=O)N1CCN(c2nc(=O)n(-c3c(C)ccnc3CC)c3nc(-c4ccccc4F)c(Cl)cc23)[C@@H](C)C1 [Example 46, 6-Chloro-1-(2-ethyl-4-methyl-3-pyridinyl)-7-(2-fluorophenyl)-4-((2S)-2-methyl-4-(2-propenoyl)-1-piperazinyl)pyrido[2,3-d]pyrimidin-2(1H)-one]
11200			C=CC(=O)N1CCN(c2nc(=O)n(-c3ccccc3C(C)C)c3nc(-c4ccccc4F)c(C)nc23)[C@@H](C)C1 (single isomer, unassigned) [Example 51-1]
	72		C=CC(=O)N1CCN(c2nc(=O)n(-c3c(C)ccnc3C(C)C)c3nc(-c4c(O)cccc4F)c(F)cc23)[C@@H](C)C1 [Example 41-1, 6-fluoro-7-(2-fluoro-6-hydroxyphenyl)-1-(4-methyl-2-(2-propanyl)-3-pyridinyl)-4-((2S)-2-methyl-4-(2-propenoyl)-1-piperazinyl)pyrido-[2,3-d]pyrimidin-2(1H)-one]
727	435		C=CC(=O)N1CCN(c2nc(=O)n(-c3c(C)ccnc3C3CC3)c3nc(-c4ccccc4F)c(Cl)cc23)[C@@H](C)C1 (single isomer, unassigned) [Example 45-2]
57	22		C=CC(=O)N1CCN(c2nc(=O)n(-c3c(C)ccnc3C(C)C)c3nc(-c4ccccc4F)c(Cl)cc23)[C@@H](C)C1 [Example 40-1, 6-chloro-7-(2-fluoro-phenyl)-1-(4-methyl-2-(2-propanyl)-3-pyridinyl)-4-((2S)-2-methyl-4-(2-propenoyl)-1-piperazinyl)pyrido-[2,3-d]pyrimidin-2(1H)-one]
971	552		C=CC(=O)N1CCN(c2nc(=O)n(-c3c(C)ccnc3CC)c3nc(-c4ccccc4F)c(Cl)cc23)[C@@H](C)C1 [Example 46-2, 6-chloro-1-(2-ethyl-4-methyl-3-pyridinyl)-7-(2-fluorophenyl)-4-((2S)-2-methyl-4-(2-propenoyl)-1-piperazinyl)pyrido-[2,3-d]pyrimidin-2(1H)-one]
320	229		C=CC(=O)N1CCN(c2nc(=O)n(-c3c(C)cnn3C(C)C)c3nc(-c4ccccc4F)c(Cl)cc23)[C@@H](C)C1 (single isomer, unassigned) [Example 53-2]
276			C=CC(=O)N1CCN(c2nc(=O)n(-c3ccccc3C(C)C)c3nc(-c4ccccc4F)c(Cl)nc23)[C@@H](C)C1 [Example 50, 6-Chloro-7-(2-fluorophenyl)-4-((2S)-2-methyl-4-(2-propenoyl)-1-piperazinyl)-1-(2-(2-propanyl)phenyl)-2(1H)-pteridinone]
117			C=CC(=O)N1CCN(c2nc(=O)n(-c3ccccc3C(C)C)c3nc(-c4ccccc4F)c(Cl)nc23)[C@@H](C)C1 (single isomer, unassigned) [Example 50-1]
5990			C=CC(=O)N1CCN(c2nc(=O)n(-c3ccccc3C(C)C)c3nc(-c4c(O)cccc4F)c(C)cc23)[C@@H](C)C1 (single isomer, unassigned) [Example 52-1]
